Values after ≈ are worked out from the molar mass of the structure shown. Active and inactive are the calls of the source.

Assay [1] deals with Pseudomonas aeruginosa. Nature of the assay: Antibacterial activity against Pseudomonas aeruginosa 28 by gradient plate test. It counts as functional.
Assay [2] has as its system Plasmodium berghei. Nature of the assay: Antimalarial activity against Plasmodium berghei infected in mouse assessed as increase in mean survival days of host at 5 mg/kg, sc administered 72 hrs after infection relative to control. The settings on record: route subcutaneous. It counts as functional.
Assay [3] deals with Plasmodium berghei. Nature of the assay: Antimalarial activity against Plasmodium berghei infected in mouse assessed as disease cure from parasite infection at 40 mg/kg, sc administered 72 hrs after infection. Details: dose 40 mg/kg. The class given is functional, organism-based.
In assay [4] the test system is Plasmodium berghei. Nature of the assay: Antimalarial activity against Plasmodium berghei infected in mouse assessed as disease cure from parasite infection at 10 mg/kg, sc administered 72 hrs after infection. The class given is functional, organism-based. Details: dose 10 mg/kg.
The subject of assay [5] is Plasmodium berghei. Nature of the assay: Antimalarial activity against Plasmodium berghei infected in mouse assessed as disease cure from parasite infection at 20 mg/kg, sc administered 72 hrs after infection. The class given is functional, organism-based. Details: dose 20 mg/kg.
Assay [6] has as its system Plasmodium berghei. Nature of the assay: Antimalarial activity against Plasmodium berghei infected in mouse assessed as increase in mean survival days of host at 10 mg/kg, sc administered 72 hrs after infection relative to control. The following applies: route subcutaneous. The class given is functional.
For assay [7], the system named is Plasmodium berghei. Nature of the assay: Antimalarial activity against Plasmodium berghei infected in mouse assessed as increase in mean survival days of host at 20 mg/kg, sc administered 72 hrs after infection relative to control. It counts as functional. The settings on record: route subcutaneous.
Assay [8] has as its system Plasmodium berghei. Nature of the assay: Antimalarial activity against Plasmodium berghei infected in mouse assessed as disease cure from parasite infection at 640 mg/kg, sc administered 72 hrs after infection. It counts as functional, organism-based. Also on record: dose 640 mg/kg.
Assay [9] deals with Staphylococcus aureus. Nature of the assay: Antibacterial activity against drug-resistant Staphylococcus aureus S18713 by gradient plate test. The class given is functional.
Assay [10] concerns Plasmodium berghei. Nature of the assay: Antimalarial activity against Plasmodium berghei infected in mouse assessed as disease cure from parasite infection at 80 mg/kg, sc administered 72 hrs after infection. The class given is functional, organism-based. Also on record: dose 80 mg/kg.
The subject of assay [11] is Plasmodium berghei. Nature of the assay: Antimalarial activity against Plasmodium berghei infected in mouse assessed as disease cure from parasite infection at 160 mg/kg, sc administered 72 hrs after infection. It counts as functional, organism-based. Also on record: dose 160 mg/kg.
In assay [12] the test system is Mycobacterium tuberculosis. Nature of the assay: Antibacterial activity against Mycobacterium tuberculosis H37Ra by gradient plate test. It counts as functional.
Assay [13] has as its system Escherichia coli. Nature of the assay: Antibacterial activity against Escherichia coli Vogel by gradient plate test. The class given is functional.
Assay [14] has as its system Plasmodium berghei. Nature of the assay: Antimalarial activity against Plasmodium berghei infected in mouse assessed as increase in mean survival days of host at 2.5 mg/kg, sc administered 72 hrs after infection relative to control. It counts as functional. The settings on record: route subcutaneous.
Assay [15] relates to Shigella sonnei. Nature of the assay: Antibacterial activity against Shigella sonnei C-10 by gradient plate test. The class given is functional.
Assay [16] deals with Plasmodium berghei. Nature of the assay: Antimalarial activity against Plasmodium berghei infected in mouse assessed as disease cure from parasite infection at 5 mg/kg, sc administered 72 hrs after infection. The class given is functional, organism-based. Details: dose 5 mg/kg.
Assay [17] deals with Plasmodium berghei. Nature of the assay: Antimalarial activity against Plasmodium berghei infected in mouse assessed as increase in mean survival days of host at 1.25 mg/kg, sc administered 72 hrs after infection relative to control. It counts as functional. The following applies: route subcutaneous.
Assay [18] concerns Staphylococcus aureus. Nature of the assay: Antibacterial activity against Staphylococcus aureus UC-96 by gradient plate test. The class given is functional.
The subject of assay [19] is Enterococcus faecalis. Nature of the assay: Antibacterial activity against Streptococcus faecalis MGH-2 by gradient plate test. The class given is functional.
Assay [20] concerns Plasmodium berghei. Nature of the assay: Antimalarial activity against Plasmodium berghei infected in mouse assessed as disease cure from parasite infection at 320 mg/kg, sc administered 72 hrs after infection. It counts as functional, organism-based. Also on record: dose 320 mg/kg.

For orientation: MIC means the smallest concentration in the dilution series that meets the test's criterion for growth inhibition. A low value points to inhibition by little substance. In the case of `Nc1nc(N)c2c(Cl)c(Sc3ccc4ccccc4c3)ccc2n1`, the MIC in assay [1] is above 25 µg/mL; in assay [9], 5 µg/mL (≈ 14.2 µM); in assay [12], 10 µg/mL (≈ 28.3 µM); in assay [13], 10 µg/mL (≈ 28.3 µM); in [15] it was above 25 µg/mL; in assay [18], 1.5 µg/mL (≈ 4.25 µM). Besides, the minimal inhibitory concentration (MIC) in assay [19] is below 0.25 µg/mL. Further, the MST was 12.7 days in assay [2]; 15.9 days in assay [6]; 15.9 days in assay [7]; 7.9 days in [14]; 5.5 days in assay [17]. The outcome in [3], in assay [4], in assay [5], in assay [8], in assay [10] and in [11] was Active. The outcome in assay [16] and in assay [20] was Active.

The values are drawn from ChEMBL document CHEMBL3272271, “Folate antagonists. 13. 2,4-Diamino-6-](alpha,alpha,alpha-trifluoro-m-tolyl)thio]quinazoline and related 2,4-diamino-6-[(phenyl- and naphthyl)thio]quinazolines, a unique class of antimetabolites with extraordinary antimalarial and antibacterial effects” (J Med Chem, 1978).
